Results on seven compounds are retold here after publication PMC5075052, “Modulation of the Substitution Pattern of 5-Aryl-2-Aminoimidazoles Allows Fine-Tuning of Their Antibiofilm Activity Spectrum and Toxicity” (Antimicrobial Agents and Chemotherapy, 2016).

The test system of assay [1] is E. coli TG1 + P. aeruginosa PA14. The assay is described as follows: Mixed-species E. coli-P. aeruginosa biofilm assay (peg, crystal violet). The class given is cell-based, Escherichia coli + Pseudomonas aeruginosa. Here is the method: Overnight cultures of E. coli TG1 and P. aeruginosa PA14 were diluted 1/100 in the same vial of TSB diluted 1/20 to form a mixed-culture suspension. Next, 2-fold serial dilutions of the compounds (dissolved in 100% DMSO or ethanol) in 100 μl liquid broth (TSB diluted 1/20) per well were prepared in the microtiter plate of the Calgary biofilm device (Nunc no. 269789) in duplicate or triplicate with a maximum concentration of 1,600 μM and a minimum concentration of 0.8 μM. One hundred microliters of the mixed-culture suspension was added to each well of the microtiter plate, resulting in a total volume of 200 μl medium per well (final concentration range of compounds, 800 μM [2% DMSO or ethanol] to 0.4 μM [0.001% DMSO or ethanol]). The pegged lid was placed on the microtiter plate, and the plate was incubated for 72 h at 37°C, which allowed biofilm formation on the pegs (Nunc no. 269789) of the Calgary biofilm device. After 72 h, the biofilm was colored with crystal violet as described above ([74]). The OD570 (biofilm cells) and OD600 (planktonic cells) were measured, and the BIC50 and the IC50, respectively, were calculated.

A further assay has as its system E. coli TG1. The assay is described as follows: Monospecies bacterial biofilm inhibition, static peg assay. The class given is cell-based, Escherichia coli. The following applies: Escherichia coli. Here is the method: (§1) A static peg assay, described previously ([27], [74]), was used for bacterial biofilm formation. The Calgary biofilm device consists of a platform carrying 96 polystyrene pegs (Nunc no. 445497) that fits as a microtiter plate lid, with 1 peg hanging into each microtiter plate well (Nunc no. 269789). Twofold serial dilutions of the compounds (dissolved in 100% dimethyl sulfoxide [DMSO] or ethanol) in 100 μl liquid broth (TSB diluted 1/20) per well were prepared in the microtiter plate in duplicate or triplicate with a maximum concentration of 1,600 μM and a minimum concentration of 0.8 μM. Subsequently, an overnight culture of S. Typhimurium ATCC 14028, P. aeruginosa PA14, E. coli TG1, S. epidermidis, S. aureus SH1000, or S. aureus ATCC 6538 (all grown in LB) was diluted 1:100 into TSB diluted 1/20 (or TSB for S. epidermidis, S. aureus SH1000, and S. aureus ATCC 6538), whereas overnight cultures of S. liquefaciens MG44 and B. cepacia LMG1222T were diluted 1:50 into TSB diluted 1/20. P. gingivalis ATCC 33277 cultures were diluted in TSB diluted 1/20 to have a final concentration of 1 × 10^8 cells/ml. Next, 100 μl was added to each well of the microtiter plate, resulting in a total volume of 200 μl medium per well (final concentration range of compounds, 800 μM [2% DMSO or ethanol] to 0.4 μM [0.001% DMSO or ethanol]). In the next step, the pegged lid was placed on the microtiter plate and the plate was incubated for 24 h or 48 h at 25°C or 37°C without shaking. At 37°C, the plates were placed in a sealed container with wet towels on the bottom to prevent evaporation of the growth medium. Biofilms of P. gingivalis ATCC 33277 were grown anaerobically at 37°C for 72 h. During this incubation period, biofilms were formed on the surface of the pegs. After incubation, the optical density at 600 nm (OD600) for the planktonic cells in the microtiter plate was measured using a Synergy MX multimode reader (BioTek, Winooski, VT). This gives a first indication of the effect of the compounds on planktonic growth. For quantification of biofilm formation, the pegs were washed once in 200 μl PBS. The remaining attached bacteria were stained for 30 min with 200 μl 0.1% (wt/vol) crystal violet in an isopropanol-methanol-PBS solution (1:1:18, vol/vol). Excess stain was rinsed off by placing the pegs in a 96-well plate filled with 200 μl distilled water per well. After air drying of the pegs (30 min), the dye bound to the adherent biofilm was extracted with 30% glacial acetic acid (200 μl per well of a 96-well plate). The optical density at 570 nm (OD570) of each well was measured using a Synergy MX multimode reader (BioTek, Winooski, VT). The concentration of each compound needed to inhibit biofilm formation by 50% (BIC50) and the concentration of each compound needed to inhibit planktonic growth by 50% (IC50) were determined from the concentration gradient by using nonlinear curve fitting (GraphPad Prism software, version 5; GraphPad Software, Inc., La Jolla, CA). In the same assay, the effect on planktonic growth was evaluated. The activity was considered biofilm specific if the BIC50 was at least two times lower than the IC50. Data represent the means from at least 3 technical repeats with the corresponding 95% confidence intervals (provided in the supplemental material).

For another assay, the system named is P. aeruginosa PA14. The assay is described as above. The class given is cell-based, Pseudomonas aeruginosa. Particulars: Pseudomonas aeruginosa. The procedure:
as §1

In another assay the test system is C. albicans SC5314. The assay is described as follows: Inhibition of C. albicans biofilms, CellTiter-Blue quantification. The class given is cell-based, Candida albicans. The following applies: Candida albicans; C. albicans SC5314, 37°C, CTB method; read-out: BIC50 (μM) for C. albicans SC5314 (37°C). The procedure:
The potential of the compounds to prevent C. albicans SC5314 biofilm formation was assessed using the CellTiter-Blue (CTB) quantification method ([75]). […]. Twofold serial dilutions of the compounds (dissolved in 100% DMSO or ethanol) in 100 μl RPMI 1640 medium per well were prepared in a round-bottom polystyrene 96-well microtiter plate (TPP; Trasadingen, Switzerland) in duplicate or triplicate with a maximum concentration of 1,600 μM and a minimum concentration of 0.8 μM. One hundred microliters of the cell suspension was added to each well of the microtiter plate, resulting in a total volume of 200 μl medium per well (final concentration range of compounds, 800 μM [2% DMSO or ethanol] to 0.4 μM [0.001% DMSO or ethanol]). After 16 h of static incubation at 37°C, the biofilms were washed and quantified by the CTB method as described previously ([73]).
Background: The colour change of resazurin is a common sign of viable cells or microbes.

A further assay has as its system S. aureus ATCC 6538. The assay is described as follows: Monospecies bacterial biofilm inhibition, static peg assay (Calgary device, crystal violet; planktonic OD600). It counts as cell-based, Staphylococcus aureus. The following applies: Staphylococcus aureus. Here is the method: as §1
Where [2] appears, read: 72 h, mixed E. coli TG1 + P. aeruginosa PA14, 37°C, read-out: IC50 (planktonic growth).
Where [3] appears, read: 72 h, mixed E. coli TG1 + P. aeruginosa PA14 biofilm, 37°C, read-out: BIC50.
[4] abbreviates: TG1, E. coli TG1, 37°C, read-out: BIC50.
[5] abbreviates: TG1, E. coli TG1, 37°C, read-out: IC50 (planktonic growth).
Where [6] appears, read: PA14, P. aeruginosa PA14, 25°C, read-out: BIC50.
The mark [7] stands for this setting: PA14, P. aeruginosa PA14, 37°C, read-out: BIC50.
[8] abbreviates: PA14, P. aeruginosa PA14, 37°C, read-out: IC50 (planktonic growth).
The mark [9] stands for this setting: ATCC6538, read-out: BIC50 (concentration needed to inhibit biofilm formation by 50%), S. aureus ATCC 6538, 37°C.
[10] abbreviates: ATCC6538, read-out: IC50 (concentration needed to inhibit planktonic growth by 50%), S. aureus ATCC 6538, 37°C, planktonic OD600.
Setting [11] is: mixed E. coli TG1 + P. aeruginosa PA14, 37°C, read-out: IC50 (planktonic growth).
The mark [12] stands for this setting: mixed E. coli TG1 + P. aeruginosa PA14 biofilm, 37°C, read-out: BIC50.
Where [13] appears, read: TG1, E. coli TG1, 25°C, read-out: BIC50.
[14] abbreviates: TG1, E. coli TG1, 25°C, read-out: IC50 (planktonic growth).
The mark [15] stands for this setting: PA14, P. aeruginosa PA14, 25°C, read-out: IC50 (planktonic growth).
Setting [16] is: ATCC6538, S. aureus ATCC 6538, 37°C, planktonic OD600, read-out: IC50 (concentration needed to inhibit planktonic growth by 50%).
[17] abbreviates: ATCC6538, S. aureus ATCC 6538, 37°C, read-out: BIC50 (concentration needed to inhibit biofilm formation by 50%).

Where two headings read alike, the source gives them in different places.

`CCCCCn1c(-c2ccccc2)cnc1N` [Compound 1]: the IC50 in assay [1] (setting [2]) was 60.7 µM; in assay [1] (setting [3]) it was 74.3 µM; with E. coli TG1 (setting [4]), about 47.8 µM; with E. coli TG1 (setting [5]), 34.1 µM; in the assay with P. aeruginosa PA14 (setting [6]) it was 2.1 µM; in the assay on P. aeruginosa PA14 (setting [7]), 104 µM. In addition, the IC50 with P. aeruginosa PA14 (setting [8]) came to 45.2 µM; in the assay on C. albicans SC5314, 145 µM; in the assay with S. aureus ATCC 6538 (setting [9]), 59.3 µM; in the assay with S. aureus ATCC 6538 (setting [10]), 231 µM.

`CCCCCCCCn1c(-c2ccccc2)cnc1NC1CCCC1` [Compound 8e]: the IC50 in assay [1] (setting [11]) was over 400 µM; in assay [1] (setting [12]), 101 µM; in the assay with E. coli TG1 (setting [13]), about 26.7 µM; with E. coli TG1 (setting [14]), 189 µM; with E. coli TG1 (setting [4]) it was about 27.6 µM; with E. coli TG1 (setting [5]), 10.5 µM. The IC50 was over 400 µM in the assay on P. aeruginosa PA14 (setting [6]); 62.9 µM in the assay on P. aeruginosa PA14 (setting [15]); over 400 µM with P. aeruginosa PA14 (setting [7]); 167 µM in the assay on P. aeruginosa PA14 (setting [8]); about 11.9 µM in the assay on C. albicans SC5314; 46.5 µM with S. aureus ATCC 6538 (setting [16]). The IC50 in the assay on S. aureus ATCC 6538 (setting [17]) was 1 µM.

Take `CCCCCCCCn1c(-c2ccc(Br)cc2)cnc1NCC(C)C` [Compound 8c]: the IC50 is over 400 µM in assay [1] (setting [11]); over 400 µM in assay [1] (setting [12]); over 400 µM in the assay with E. coli TG1 (setting [13]); 150 µM in the assay on E. coli TG1 (setting [14]); over 400 µM in the assay on E. coli TG1 (setting [4]); 74.1 µM in the assay with E. coli TG1 (setting [5]). Besides, the IC50 was over 400 µM in the assay with P. aeruginosa PA14 (setting [6]); over 400 µM in the assay on P. aeruginosa PA14 (setting [15]); over 400 µM in the assay on P. aeruginosa PA14 (setting [7]); 345 µM in the assay on P. aeruginosa PA14 (setting [8]); over 100 µM in the assay on C. albicans SC5314; 173 µM in the assay with S. aureus ATCC 6538 (setting [16]). For the same compound, in the assay on S. aureus ATCC 6538 (setting [17]), the IC50 is 41 µM.

As for `CC(C)CNc1ncc(-c2ccc(Cl)cc2)[nH]1` [Compound 3], the IC50 was over 400 µM in assay [1] (setting [2]); 7.4 µM in assay [1] (setting [3]); 110 µM in the assay with E. coli TG1 (setting [4]); 30 µM with E. coli TG1 (setting [5]); 0.9 µM in the assay with P. aeruginosa PA14 (setting [6]); over 400 µM in the assay with P. aeruginosa PA14 (setting [7]). In addition, the IC50 in the assay on P. aeruginosa PA14 (setting [8]) was over 400 µM; in the assay with C. albicans SC5314, 93.9 µM; with S. aureus ATCC 6538 (setting [9]), 95.3 µM; with S. aureus ATCC 6538 (setting [10]) it was about 96.1 µM.

As for `CCCCCCCCn1c(-c2ccc(Cl)cc2)cnc1NC1CCCC1` [Compound 8f], the IC50 is over 400 µM in assay [1] (setting [11]); 400 µM in assay [1] (setting [12]); 29.1 µM in the assay with E. coli TG1 (setting [13]); over 400 µM in the assay on E. coli TG1 (setting [14]); 306 µM in the assay on E. coli TG1 (setting [4]); 370 µM in the assay with E. coli TG1 (setting [5]). For the same compound, the IC50 was over 400 µM in the assay on P. aeruginosa PA14 (setting [6]); over 400 µM in the assay on P. aeruginosa PA14 (setting [15]); over 400 µM in the assay on P. aeruginosa PA14 (setting [7]); over 400 µM in the assay with P. aeruginosa PA14 (setting [8]); 8.9 µM in the assay on C. albicans SC5314; about 24.1 µM in the assay on S. aureus ATCC 6538 (setting [16]). For the same compound, in the assay with S. aureus ATCC 6538 (setting [17]), the IC50 was 6.7 µM.

With `Clc1ccc(-c2cnc(NC3CCCC3)[nH]2)cc1` [Compound 5], the IC50 in assay [1] (setting [2]) was over 400 µM; in assay [1] (setting [3]) it was 0.5 µM; in the assay on E. coli TG1 (setting [4]), about 45.7 µM; in the assay on E. coli TG1 (setting [5]), 17.1 µM; in the assay with P. aeruginosa PA14 (setting [6]), 13.5 µM; in the assay on P. aeruginosa PA14 (setting [7]), over 400 µM. In addition, the IC50 with P. aeruginosa PA14 (setting [8]) was over 400 µM; in the assay on C. albicans SC5314 it was 64 µM; with S. aureus ATCC 6538 (setting [9]), 34.4 µM; with S. aureus ATCC 6538 (setting [10]), 62.3 µM.

With `CCCCCCCCn1c(-c2ccc(Cl)c(Cl)c2)cnc1NCC(C)C` [Compound 8d], the IC50 in assay [1] (setting [11]) is over 400 µM; in assay [1] (setting [12]), over 400 µM; in the assay with E. coli TG1 (setting [13]), over 400 µM; with E. coli TG1 (setting [14]), 255 µM; in the assay on E. coli TG1 (setting [4]), over 400 µM; in the assay on E. coli TG1 (setting [5]), 46.3 µM. Also, the IC50 was over 400 µM with P. aeruginosa PA14 (setting [6]); over 400 µM in the assay on P. aeruginosa PA14 (setting [15]); over 400 µM with P. aeruginosa PA14 (setting [7]); over 400 µM with P. aeruginosa PA14 (setting [8]); over 100 µM with C. albicans SC5314; over 400 µM in the assay on S. aureus ATCC 6538 (setting [16]). In the assay with S. aureus ATCC 6538 (setting [17]), the IC50 amounted to 116 µM.
